Patent US12049583B2, “Compound, composition for anisotropic dye films including the compound, anisotropic dye film, and optical element” (Mitsubishi Chemical Corporation, priority 2020, dated 2024)

How the values were obtained:
[1] = Solubility of the dye in cyclopentanone (concentration of cyclopentanone-saturated solution by HPLC); type: physicochemical
Procedure: To 103 mg of cyclopentanone, 3 mg of the dye (IV-1) was added, and the resulting mixture was stirred at 80° C. for 5 minutes. The mixture was left to stand for 1 hour at room temperature. The resulting liquid mixture was filtered with a syringe equipped with a syringe filter (produced by Membrane Solutions Limited, PTFE13045, diameter: 0.45 μm). Hereby, a cyclopentanone-saturated solution of the dye (IV-1) was prepared. The above solution was diluted with 746 mg of tetrahydrofuran, and the concentration of the solution was determined using HPLC (L-2300 Series produced by Hitachi High-Technologies Corporation). A 0.1-mass % tetrahydrofuran solution of the dye (IV-1) was prepared, and a calibration curve was prepared at an absorption wavelength of 254 nm. The concentration of the cyclopentanone-saturated solution was measured using the above calibration curve.

[2] = Solubility of the dye in toluene (concentration of toluene-saturated solution by HPLC); type: physicochemical
Procedure: To 101 mg of toluene, 3 mg of the dye (II-1) was added, and the resulting mixture was stirred at 80° C. for 5 minutes. The mixture was left to stand for 1 hour at room temperature. The resulting liquid mixture was filtered with a syringe equipped with a syringe filter (produced by Membrane Solutions Limited, PTFE13045, diameter: 0.45 μm). Hereby, a toluene-saturated solution of the dye (II-1) was prepared. The above solution was diluted with 767 mg of tetrahydrofuran, and the concentration of the solution was determined using HPLC (L-2300 Series produced by Hitachi High-Technologies Corporation). A 0.1-mass % tetrahydrofuran solution of the dye (II-1) was prepared, and a calibration curve was prepared at an absorption wavelength of 254 nm. Table 1 lists the results of measurement of the concentration of the toluene-saturated solution using the above calibration curve.

[3] = cyclopentanone-saturated solution, stirred at 80° C. 5 min, left 1 hour at room temperature, filtered, HPLC 254 nm
[4] = toluene-saturated solution, stirred at 80° C. 5 min, left 1 hour at room temperature, filtered, HPLC 254 nm

SMILES	Solubility of the dye in cyclopentanone [1, 3] [mass %]	Solubility of the dye in toluene [2, 4] [mass %]	other results
CCCCSc1nnc(/N=N/c2ccc(/N=N/c3ccc(N(CC)CC)cc3)cc2)s1 [IV-2]	2.2		
CCN(CC)c1ccc(/N=N/c2ccc(/N=N/c3cc(C)ns3)cc2)cc1 [IV-4]	1.8		
CCN(CC)c1ccc(/N=N/c2ccc(/N=N/c3nc4sc(CCC(C)C)cc4s3)cc2)cc1 [II-2]		0.7	Solubility of the dye in toluene ([2]; measured as for dye (II-1), detection absorption wavelength 254 nm): 0.7%
CCN(CC)c1ccc(/N=N/c2ccc(/N=N/c3sc(C)cc3C#N)cc2)cc1 [IV-3]	2.7		
CCN(CC)c1ccc(/N=N/c2nc3sc(/N=N/c4ccc(OCCC(C)CC(C)(C)C)cc4)cc3s2)cc1 (centres unmarked) [II-3]	0.3		Solubility of the dye in cyclopentanone ([1]; measured as for dye (IV-1), detection absorption wavelength 254 nm): 0.3%
CCN(CC)c1ccc(/N=N/c2ccc(/N=N/c3nc4sc(CCC(C)CC(C)(C)C)cc4s3)cc2)cc1 (centres unmarked) [II-1]		0.5	
